Results reported in US20080027125A1 (priority 2006, published 2008).

Tests used:
[1] = Form A compared with the amorphous form; Form B as stated; cited from earlier work
[2] = Storing at room temperature under 100% RH for 10 days, analysed by XRD; assay type: physicochemical
Experimental: In the following examples, the forms of Fluvastatin Sodium were identified using a Scintag X-ray powder diffractometer model X'TRA with a solid state detector. Copper radiation of 1.5418 Å was used. The sample holder was a round standard aluminum sample holder with rough zero background. The scanning parameters were range: 2-40 degrees two-theta; scan mode: continuous scan; step size: 0.05 deg.; and a rate of 5 deg/min. The water content of the samples was determined by the method known as Karl Fisher (KF). […] The samples stored under 100% RH had about 25% water content.

[3] = Storing at room temperature under 0-60% RH for 10 days, analysed by XRD and KF; assay type: physicochemical; details: for form found by XRD at the end of the storage time / water content after storage: room temperature
Experimental: Copper radiation of 1.5418 Å was used. The sample holder was a round standard aluminum sample holder with rough zero background. The scanning parameters were range: 2-40 degrees two-theta; scan mode: continuous scan; step size: 0.05 deg.; and a rate of 5 deg/min. The water content of the samples was determined by the method known as Karl Fisher (KF). […] Before and after the storage time the sample was analyzed by XRD. […] Before and after the storage time the sample was analyzed by XRD and KF.

[4] = Heating of Fluvastatin Sodium Form CVI in oven, analysed by XRD and KF; assay type: physicochemical
Experimental: In the following examples, the forms of Fluvastatin Sodium were identified using a Scintag X-ray powder diffractometer model X'TRA with a solid state detector. Copper radiation of 1.5418 Å was used. The sample holder was a round standard aluminum sample holder with rough zero background. The scanning parameters were range: 2-40 degrees two-theta; scan mode: continuous scan; step size: 0.05 deg.; and a rate of 5 deg/min. The water content of the samples was determined by the method known as Karl Fisher (KF).

[5] = 0% RH, listed as fluvastatin Sodium Form CVI

SMILES: CC(C)n1c(/C=C/C(O)C[C@@H](O)CC(=O)O)c(-c2ccc(F)cc2)c2ccccc21 (stereo partly drawn) [form B, fluvastatin sodium]
- hygroscopicity [1]: low hygroscopicity

SMILES: CC(C)n1c(/C=C/C(O)C[C@@H](O)CC(=O)O)c(-c2ccc(F)cc2)c2ccccc21 (stereo partly drawn) [Form A, fluvastatin sodium]
- hygroscopicity [1]: less hygroscopic

SMILES: CC(C)n1c(/C=C/C(O)C[C@@H](O)CC(=O)O)c(-c2ccc(F)cc2)c2ccccc21 (stereo partly drawn) [amorphous fluvastatin sodium, fluvastatin sodium]
- water content after storage [2]: about 25%
- form found by XRD after storage ([2]; room temperature): Fluvastatin Na Form LXVI
- form found by XRD at the end of the storage time ([3]; 0% RH): amorphous Fluvastatin Sodium
- water content after storage ([3]; 0% RH): 4%
- form found by XRD at the end of the storage time ([3]; 60% RH): amorphous Fluvastatin Sodium

SMILES: CC(C)n1c(/C=C/C(O)C[C@@H](O)CC(=O)O)c(-c2ccc(F)cc2)c2ccccc21 (stereo partly drawn) [Form CVI, fluvastatin sodium]
- water content (KF) after heating ([4]; 80 C, 1 hour): about 2%
- water content (KF) after heating ([4]; 80 C, 1 hour, listed as Fluvastatin Na Form CVI): 2%
- conversion into fluvastatin sodium Form LXVI ([4]; heating to about 80° C. for about 1 hour): ≤ 10%
- form found by XRD after heating ([4]; oven, 80 C, 1 hour): Fluvastatin Sodium Form CVI
- form found by XRD at the end of the storage time [3, 5]: Fluvastatin Sodium Form CVI
- water content after storage [3, 5]: 3%
- form found by XRD at the end of the storage time ([3]; 60% RH, listed as fluvastatin Sodium Form CVI): Fluvastatin Sodium Form CVI
- conversion into fluvastatin sodium Form LXVI ([3]; relative humidity about 0% to about 60%): ≤ 10%
